Consider 14 compounds from patent US10005818B2, “Derivative peptide compounds and methods of use” (REALTA HOLDINGS, LLC, priority 2010, dated 2018).

Square brackets hold non-standard residues; d marks the D form. Peptide text beside a SMILES is read from it. PEG24 = NCCOCCOCCOCCOCCOCCOCCOCCOCCOCCOCCOCCOCCOCCOCCOCCOCCOCCOCCOCCOCCOCCOCCOCCOCCC(=O)O; Sar = CNCC(=O)O

The test system of data set [1] is complement activation in factor B-depleted human sera. It is filed as biochemical. On the procedure:
Peptides were diluted to 0.77 mM in factor B-depleted human sera (Complement Technologies, Inc.) and incubated for 1 hour at 37° C. These peptides were then diluted with GVBS^++ to equal 2.5/s serum, of which 0.25 ml was combined with 0.4 ml of GVBS^++ and 0.1 ml of sensitized sheep red blood cells (RBCs) and again incubated for 1 hour at 37° C. The procedure was stopped by the addition of 4.0 ml of GVBS^−−, centrifuged for 5 minutes at 1,620×g, and the absorbance of the supernatants was read at 412 nm in a spectrophotometer. The percent lysis of each sample was standardized to that of the serum only control.
The final concentration of peptide in factor B-depleted serum was 0.77 mM. Each peptide was evaluated in triplicate and the mean values are reported. […] In the hemolytic assay, soluble peptides are standardized to water and insoluble peptides standardized to DMSO.
Polar Assortant peptides were serially diluted in undiluted factor B-depleted human sera (Complement Technologies, Inc.) and incubated for 1 hour at 37° C. Water, GVBS^++ and DMSO were included as controls. These peptides were then diluted with GVBS^++ to equal 2.5/s serum, of which 0.25 ml was combined with 0.4 ml of GVBS^++ and 0.1 ml of sensitized sheep red blood cells (RBCs) and again incubated for 1 hour at 37° C. The procedure was stopped by the addition of 4.0 ml of GVBS^−−, centrifuged for 5 minutes at 1,620×g, and the absorbance of the supernatants was read at 412 nm in a spectrophotometer. The percent lysis of each sample was standardized to that of the serum only control.
The final concentration of peptide in factor B-depleted serum was 0.77 mM. […] In the hemolytic assay, soluble peptides were standardized to water and insoluble peptides standardized to DMSO.
The final concentration of peptide in factor B-depleted serum was 0.77 mM. […] In the hemolytic assay, soluble peptides are standardized to water and insoluble peptides standardized to DMSO.

The nature of the next data set: Solubility in water. It counts as physicochemical.
[2] abbreviates: Table 7, PEGylated and sarcosine/alanine substitution peptides.
Setting [3] is: Table 5, sarcosine substitution peptides.

`CC[C@H](C)[C@H](N)C(=O)N[C@@H](C)C(=O)N[C@@H](CC(C)C)C(=O)N[C@H](C(=O)N[C@@H](CC(C)C)C(=O)N[C@@H](C)C(=O)N1CCC[C@H]1C(=O)N[C@H](C(=O)N[C@@H](CS)C(=O)N[C@@H](CS)C(=O)N[C@@H](CCC(N)=O)C(=O)N[C@@H](C)C(=O)N[C@@H](CCCNC(=N)N)C(=O)N[C@@H](C)C(=O)N[C@@H](C)C(=O)NCCOCCOCCOCCOCCOCCOCCOCCOCCOCCOCCOCCOCCOCCOCCOCCOCCOCCOCCOCCOCCOCCOCCOCCOCCC(=O)O)[C@@H](C)CC)[C@@H](C)CC` [E6AE12A-dPEG24] (H-IALILAPICCQARAA[PEG24]-OH; N-terminus assumed): in data set [1], the “Hemolysis (%)” value is given as 4.95%. Further, in “Solubility in water” (setting [2]), the Solubility in water entry is given as “Yes”.

Consider `CC[C@H](C)[C@H](N)C(=O)N(C)CC(=O)N[C@@H](CC(C)C)C(=O)N[C@H](C(=O)N[C@@H](CC(C)C)C(=O)N[C@@H](CCC(=O)O)C(=O)N1CCC[C@H]1C(=O)N[C@H](C(=O)N[C@@H](CS)C(=O)N[C@@H](CS)C(=O)N[C@@H](CCC(N)=O)C(=O)N[C@@H](CCC(=O)O)C(=O)N[C@@H](CCCNC(=N)N)C(=O)N[C@@H](C)C(=O)N[C@@H](C)C(=O)O)[C@@H](C)CC)[C@@H](C)CC` [PA-A2Sar] (H-I[Sar]LILEPICCQERAA-OH; N-terminus and C-terminus assumed), for which the “Hemolysis (%)” value in data set [1] worked out at 37.72%. For the same compound, the Solubility in water result in “Solubility in water” (setting [3]) was “Yes”.

In the case of `CC[C@H](C)[C@H](N)C(=O)N[C@@H](C)C(=O)N[C@@H](CC(C)C)C(=O)N[C@H](C(=O)N[C@@H](CC(C)C)C(=O)N[C@@H](CCC(=O)O)C(=O)N1CCC[C@H]1C(=O)N[C@H](C(=O)N[C@@H](CS)C(=O)N[C@@H](CS)C(=O)N[C@@H](CCC(N)=O)C(=O)N[C@@H](CCC(=O)O)C(=O)N[C@@H](CCCNC(=N)N)C(=O)N(C)CC(=O)N[C@@H](C)C(=O)NCCOCCOCCOCCOCCOCCOCCOCCOCCOCCOCCOCCOCCOCCOCCOCCOCCOCCOCCOCCOCCOCCOCCOCCOCCC(=O)O)[C@@H](C)CC)[C@@H](C)CC` [PA-A14Sar-dPEG24], in data set [1], the “Hemolysis (%)” value was found to be 3.68%. The Solubility in water result in the data set “Solubility in water” (setting [2]) was “Yes”.

On to `CC[C@H](C)[C@H](N)C(=O)N[C@@H](C)C(=O)N[C@@H](CC(C)C)C(=O)N[C@H](C(=O)N[C@@H](CC(C)C)C(=O)N[C@@H](CCC(=O)O)C(=O)N1CCC[C@H]1C(=O)N[C@H](C(=O)N[C@@H](CS)C(=O)N[C@@H](CS)C(=O)N[C@@H](CCC(N)=O)C(=O)N[C@@H](CCC(=O)O)C(=O)N[C@@H](CCCNC(=N)N)C(=O)N(C)CC(=O)N[C@@H](C)C(=O)O)[C@@H](C)CC)[C@@H](C)CC` [PA-A14Sar], for which the “Hemolysis (%)” value in data set [1] is recorded as 3.88%. For the same compound, the Solubility in water entry in the data set “Solubility in water” (setting [3]) is “No”.

On to `CC[C@H](C)[C@H](N)C(=O)N[C@@H](C)C(=O)N[C@@H](CC(C)C)C(=O)N[C@H](C(=O)N[C@@H](CC(C)C)C(=O)N[C@@H](CCC(=O)O)C(=O)N1CCC[C@H]1C(=O)N[C@H](C(=O)N[C@@H](CS)C(=O)N[C@@H](CS)C(=O)N[C@@H](CCC(N)=O)C(=O)N[C@@H](CCC(=O)O)C(=O)N[C@@H](CCCNC(=N)N)C(=O)N[C@@H](C)C(=O)N(C)CC(=O)O)[C@@H](C)CC)[C@@H](C)CC` [PA-A15Sar], for which the “Hemolysis (%)” value in data set [1] is on record as 21.68%. In the data set “Solubility in water” (setting [3]), the Solubility in water entry is “No”.

Regarding `CC[C@H](C)[C@H](N)C(=O)N[C@@H](C)C(=O)N[C@@H](CC(C)C)C(=O)N[C@H](C(=O)N[C@@H](CC(C)C)C(=O)N[C@@H](CCC(=O)O)C(=O)N1CCC[C@H]1C(=O)N[C@H](C(=O)N(C)CC(=O)N[C@@H](C)C(=O)N[C@@H](CCC(N)=O)C(=O)N[C@@H](CCC(=O)O)C(=O)N[C@@H](CCCNC(=N)N)C(=O)N[C@@H](C)C(=O)N[C@@H](C)C(=O)O)[C@@H](C)CC)[C@@H](C)CC` [PA-C9SarC10A] (H-IALILEPI[Sar]AQERAA-OH), the “Hemolysis (%)” value in data set [1] came out at 99.37%. For the same compound, the Solubility in water entry in “Solubility in water” (setting [2]) is recorded as “Yes”.

In the case of `CC[C@H](C)[C@H](N)C(=O)N[C@@H](C)C(=O)N[C@@H](CC(C)C)C(=O)N[C@H](C(=O)N[C@@H](CC(C)C)C(=O)N[C@@H](CCC(=O)O)C(=O)N1CCC[C@H]1C(=O)N[C@H](C(=O)N(C)CC(=O)N[C@@H](CCC(N)=O)C(=O)N[C@@H](CCC(=O)O)C(=O)N[C@@H](CCCNC(=N)N)C(=O)N[C@@H](C)C(=O)N[C@@H](C)C(=O)O)[C@@H](C)CC)[C@@H](C)CC` [PA-C9SarD10] (H-IALILEPI[Sar]QERAA-OH), in data set [1], the “Hemolysis (%)” value was 100.52%. In “Solubility in water” (setting [2]), the Solubility in water entry is on record as “Yes”.

Turning to `CC[C@H](C)[C@H](N)C(=O)N[C@@H](C)C(=O)N[C@@H](CC(C)C)C(=O)N[C@H](C(=O)N[C@@H](CC(C)C)C(=O)N[C@@H](CCC(=O)O)C(=O)N1CCC[C@H]1C(=O)N[C@H](C(=O)N(C)CC(=O)N[C@@H](CS)C(=O)N[C@@H](CCC(N)=O)C(=O)N[C@@H](CCC(=O)O)C(=O)N[C@@H](CCCNC(=N)N)C(=O)N[C@@H](C)C(=O)N[C@@H](C)C(=O)O)[C@@H](C)CC)[C@@H](C)CC` [PA-C9Sar] (H-IALILEPI[Sar]CQERAA-OH; N-terminus and C-terminus assumed), in data set [1], the “Hemolysis (%)” value stood at 5.63%. Further, the “solubility in water / aqueous solutions” value in “Solubility in water” is recorded as “water soluble”. In addition, in “Solubility in water” (setting [3]), the Solubility in water result is listed as “Yes”.

Turning to `CC[C@H](C)[C@H](N)C(=O)N[C@@H](C)C(=O)N[C@@H](CC(C)C)C(=O)N[C@H](C(=O)N[C@@H](CC(C)C)C(=O)N[C@@H](CCC(=O)O)C(=O)N1CCC[C@H]1C(=O)N[C@H](C(=O)N[C@@H](CS)C(=O)N(C)CC(=O)N[C@@H](CCC(N)=O)C(=O)N[C@@H](CCC(=O)O)C(=O)N[C@@H](CCCNC(=N)N)C(=O)N[C@@H](C)C(=O)N[C@@H](C)C(=O)O)[C@@H](C)CC)[C@@H](C)CC` [PA-C10Sar], in data set [1], the “Hemolysis (%)” value came to 56.18%. For the same compound, in “Solubility in water” (setting [3]), the Solubility in water entry is recorded as “No”.

For `CC[C@H](C)[C@H](N)C(=O)N[C@@H](C)C(=O)N[C@@H](CC(C)C)C(=O)N[C@H](C(=O)N[C@@H](CC(C)C)C(=O)N(C)CC(=O)N1CCC[C@H]1C(=O)N[C@H](C(=O)N[C@@H](CS)C(=O)N[C@@H](CS)C(=O)N[C@@H](CCC(N)=O)C(=O)N[C@@H](CCC(=O)O)C(=O)N[C@@H](CCCNC(=N)N)C(=O)N[C@@H](C)C(=O)N[C@@H](C)C(=O)NCCOCCOCCOCCOCCOCCOCCOCCOCCOCCOCCOCCOCCOCCOCCOCCOCCOCCOCCOCCOCCOCCOCCOCCOCCC(=O)O)[C@@H](C)CC)[C@@H](C)CC` [PA-E6Sar-dPEG24], the “Hemolysis (%)” value in data set [1] was 12.88%. Besides, in “Solubility in water” (setting [2]), the Solubility in water entry is given as “Yes”.

For the compound `CC[C@H](C)[C@H](N)C(=O)N[C@@H](C)C(=O)N[C@@H](CC(C)C)C(=O)N[C@H](C(=O)N[C@@H](CC(C)C)C(=O)N(C)CC(=O)N1CCC[C@H]1C(=O)N[C@H](C(=O)N[C@@H](CS)C(=O)N[C@@H](CS)C(=O)N[C@@H](CCC(N)=O)C(=O)N[C@@H](CCC(=O)O)C(=O)N[C@@H](CCCNC(=N)N)C(=O)N[C@@H](C)C(=O)N[C@@H](C)C(=O)O)[C@@H](C)CC)[C@@H](C)CC` [PA-E6Sar], in data set [1], the “Hemolysis (%)” value is reported as 5.19%. Also, the Solubility in water result in the data set “Solubility in water” (setting [3]) was “No”.

On to `CC[C@H](C)[C@H](NC(=O)[C@H](CC(C)C)NC(=O)[C@H](C)NC(=O)CNC)C(=O)N[C@@H](CC(C)C)C(=O)N[C@@H](CCC(=O)O)C(=O)N1CCC[C@H]1C(=O)N[C@H](C(=O)N[C@@H](CS)C(=O)N[C@@H](CS)C(=O)N[C@@H](CCC(N)=O)C(=O)N[C@@H](CCC(=O)O)C(=O)N[C@@H](CCCNC(=N)N)C(=O)N[C@@H](C)C(=O)N[C@@H](C)C(=O)O)[C@@H](C)CC` [PA-I1Sar], for which the “Hemolysis (%)” value in data set [1] is given as 84.49%. Besides, the Solubility in water entry in “Solubility in water” (setting [3]) is on record as “No”.

In the case of `CC[C@H](C)[C@H](N)C(=O)N[C@@H](C)C(=O)N[C@@H](CC(C)C)C(=O)N[C@H](C(=O)N[C@@H](CC(C)C)C(=O)N[C@@H](CCC(=O)O)C(=O)N1CCC[C@H]1C(=O)N[C@H](C(=O)N[C@@H](CS)C(=O)N[C@@H](CS)C(=O)N[C@@H](CCC(N)=O)C(=O)N[C@@H](CCC(=O)O)C(=O)N[C@@H](CCCNC(=N)N)C(=O)N[C@@H](C)C(=O)N[C@@H](C)C(=O)NCCOCCOCCOCCOCCOCCOCCOCCOCCOCCOCCOCCOCCOCCOCCOCCOCCOCCOCCOCCOCCC(=O)O)[C@@H](C)CC)[C@@H](C)CC` [PA-dPEG20], the Solubility in water result in “Solubility in water” (Table 6, PEGylated PA peptides) is listed as “Yes”.

Take `CC[C@H](C)[C@H](N)C(=O)N[C@@H](C)C(=O)N[C@@H](CC(C)C)C(=O)N[C@H](C(=O)N[C@@H](CC(C)C)C(=O)N[C@@H](CCC(=O)O)C(=O)N1CCC[C@H]1C(=O)N[C@H](C(=O)N[C@@H](CS)C(=O)N[C@@H](CS)C(=O)N[C@@H](CCC(N)=O)C(=O)N[C@@H](CCC(=O)O)C(=O)N[C@@H](CCCNC(=N)N)C(=O)N[C@@H](C)C(=O)N[C@@H](C)C(=O)O)[C@@H](C)CC)[C@@H](C)CC` [PA]: in “Solubility in water”, the “solubility in water / aqueous solutions” value is reported as “low solubility”. For the same compound, the Solubility in water entry in the data set “Solubility in water” (setting [3]) was “No”.
